The source of these data is patent US6280768A, “Berberine alkaloids as a treatment for chronic protozoally induced diarrhea” (PRM Pharmaceuticals, Inc., priority 1997, dated 2001).

The subject of experiment [1] is microsporidia. To be noted: some AIDS patients; cited from earlier work.
For experiment [2], the system named is E. intestinalis. The following applies: cited from earlier work.
For experiment [3], the system named is microsporidiosis. To be noted: cited from earlier work.
Experiment [4] has as its system E. bieneusi. The following applies: cited from earlier work.
Experiment [5] concerns Enterocytozoon bieneusi. To be noted: cited from earlier work.
The subject of experiment [6] is E. intestinalis. The experiment is described as follows: In vitro growth (spore numbers) of E. intestinalis in infected Vero cells. It counts as cell-based, Encephalitozoon intestinalis. The text has this: (§1) The protozoa tested were established strains of 3 extracellular protozoan parasites; (1) Giardia lamblia, (2) Trichomonas vaginalis, (3) Entamoeba histolytica, and the intracellular microsporidian parasite (4) Encephalitozoon intestinalis.
Cultures of E. intestinalis infected African green monkey kidney (Vero) cells were kindly provided by G. S. Visvesvara, CDC, Atlanta, Ga. The E. intestinalis was originally isolated from the urine of an AIDS patient (J. Clin. Microbiol. 33:930-936, 1995).
Cells were grown in T25 flasks at 37° C. in a humidified CO2 incubator, and subcultured when confluent (every 3-4 days). The medium was MEM supplemented with Earle's salts, L-glutamine, 5% heat-inactivated fetal bovine serum, fungizone (2 μg/ml) and gentamicin (50 μg/ml). E. intestinalis spores were prepared by centrifugation of infected cell medium (3-4 days old) at 2000×g for 15 min, followed by suspension in fresh medium to give 1-20×10^4 spores/ml (determined with a hemocytometer). […]
Every 72-96 h after infection, the medium was completely removed, discarded, and replaced with fresh medium plus berberine. The medium from the 4th change (2-3 weeks post infection) was collected into tubes and spore numbers were determined in a hemocytometer. […] Consequently, spore numbers after 3-4 medium changes provided a quantitative measure of the effects of berberine on microsporidia growth.

Experiment [7] concerns G.lamblia. The experiment is described as follows: In vitro growth inhibition of Giardia lamblia. The following applies: Giardia duodenalis; for activity at 30 µg/mL / activity at 62 µg/mL / activity at 125 µg/mL / activity at 250 µg/mL / activity at 500 µg/mL / activity at 1000 µg/mL: 48 h; for activity at 30 µg/mL: 30 μg/ml; for activity at 62 µg/mL: 62 μg/ml; for activity at 125 µg/mL: 125 μg/ml; for activity at 250 µg/mL: 250 μg/ml; for activity at 500 µg/mL: 500 μg/ml; for activity at 1000 µg/mL: 1000 μg/ml. It is filed as cell-based.
Text: as §1
(§2) Culture conditions and media for (1)-(3) and methods for assaying drug susceptibility were as described in Katiyar, S K and Edlind T D, Enhanced Antiparasitic Activity of Lipophilic Tetracyclines: Role of Uptake, Antimicrob. Agents Chemother., vol. 35:2198-2202 (1991), incorporated herein by reference.
(§3) Cultures of the extracellular parasites were started from frozen stocks and passaged several times over a 2-3 week period to ensure viability, maximal growth rate, and lack of contamination. On day 1 of the assay, log phase cultures were diluted to 5×10^4 cells/ml in fresh medium and aliquoted to 2 ml vials, which were filled to maintain anaerobic conditions. The berberine was dissolved and diluted in water to various concentrations and then added to the cultures. "negative controls" received the vehicle alone.
(§4) Cultures were incubated at 37° C. with slow rotation. After 48 hours (for T. vaginalis and G. lamblia) and 72 hours (for E. histolytica), cell numbers were determined using a hemocytometer. The concentration of compound inhibiting growth 50% (IC50) relative to controls was estimated from dose response plots. The assays were repeated at least twice.
(§5) Initially, the berberine was tested over a wide range of concentrations (0.1, 1, 10, 100 and 1000 μg/ml).

Experiment [8] concerns E.histolytica. The experiment is described as follows: In vitro growth inhibition of Entamoeba histolytica. The following applies: for activity at 30 µg/mL: 30 μg/ml; for activity at 125 µg/mL: 125 μg/ml; for activity at 500 µg/mL: 500 μg/ml; for activity at 1000 µg/mL: 1000 μg/ml. It is filed as cell-based.
Text: as §1, §2, §3, §4, §5

Experiment [9] concerns T.vaginalis. The experiment is described as follows: In vitro growth inhibition of Trichomonas vaginalis. It is filed as cell-based. To be noted: for activity at 30 µg/mL / activity at 62 µg/mL / activity at 125 µg/mL / activity at 250 µg/mL / activity at 500 µg/mL / activity at 1000 µg/mL: 48 h; for activity at 30 µg/mL: 30 μg/ml; for activity at 62 µg/mL: 62 μg/ml; for activity at 125 µg/mL: 125 μg/ml; for activity at 250 µg/mL: 250 μg/ml; for activity at 500 µg/mL: 500 μg/ml.
Text: as §1, §2, §3, §4, §5

Experiment [10] relates to Cryptosporidium parvum. To be noted: in vivo; cited from earlier work.
The mark [11] stands for this setting: growth, 48 hours, estimated from dose response plots.

The structures appear in SMILES notation. Read-outs that look alike come from different tables or passages of the source. Bounds are passed on as bounds.

With `CCCSc1ccc2nc(NC(=O)OC)[nH]c2c1` [albendazole], the relief of diarrhea result in experiment [1] is given as “temporarily relieve the diarrhea of some AIDS patients”. Moreover, the “clearing E. intestinalis from the stools” value in experiment [2] (five AIDS patients) is reported as “initially effective in clearing E. intestinalis from the stools”. In experiment [2] (followed for more than one month), the “patients with spores of E. intestinalis again detected in stools” value was “two of four patients”. In addition, in experiment [2] (human, in vivo), the duration of relief result is given as “relief was only temporary” and the “relapse during maintenance therapy” value is given as “Relapse occurred in one patient”. Further, in experiment [3] (18 AIDS patients), the remission of diarrhea was 70%. Further, the “arrest of parasite development” value in [3] (human, in vivo) is “did not completely arrest development”. The “rate of parasite reproduction” value in experiment [3] (interfering with tubulin polymerization) was “slow the rate of parasite reproduction”. Further, the parasite load result in experiment [3] (patients who responded) is “reduction in parasite load in those patients who responded”. Moreover, the “E. bieneusi spores in small bowel biopsies” value in [4] (following treatment) is recorded as “spores were still present”. Moreover, the “symptoms and parasite burden” value in [4] (some of 29 patients) is “improved symptoms and reduced the parasite burden in some of their 29 patients”. Besides, the “reduction in parasite load” value in experiment [5] (after oral treatment) is on record as “no significant reduction in parasite load”. Besides, in experiment [5] (human, in vivo), the “changes in the parasite” value is reported as “degenerative changes in the parasite”, the “patients relapsed within one month” value is listed as “Four of five patients relapsed within one month” and the “relapse of the fifth patient” value is “the fifth patient relapsed within two months”. For the same compound, the “resolution of chronic diarrhea” value in experiment [5] (six AIDS patients) was “effective in resolving the chronic diarrhea of six AIDS patients”.

As a reminder, the IC50 is the concentration at which inhibition is half-maximal. For the compound `COc1ccc2cc3[n+](cc2c1OC)CCc1cc2c(cc1-3)OCO2.Cl` [berberine hydrochloride, 5,6-Dihydro-9,10-dimethoxybenzo[g]-1,3-benzodioxolo[5,6-a]quinolizinium hydrochloride], the “activity against the microsporidium E. intestinalis” value in [6] is reported as “showed activity against the microsporidium E. intestinalis”. Also, the activity at 30 µg/mL in [7] (Exp. 1) was 99%; in [7] (Exp. 2) it was 97%; in [8] (72 h, Exp. 1) it was 102%; in experiment [8] (72 h, Exp. 2), 101%; in [9] (Exp. 1), 93%; in experiment [9] (Exp. 2) it was 99%. For the same compound, the activity at 30 µg/mL in experiment [9] (Exp. 3) amounted to 96%. The activity at 62 µg/mL came to 89% in experiment [7] (Exp. 1); 85% in [7] (Exp. 2); 88% in [7] (Exp. 3); 90% in experiment [8] (72 h, 62 μg/ml, Exp. 2); 90% in [9] (Exp. 1); 98% in [9] (Exp. 2). Besides, the activity at 62 µg/mL in [9] (Exp. 3) was determined as 98%. The activity at 125 µg/mL is 79% in experiment [7] (Exp. 1); 69% in experiment [7] (Exp. 2); 75% in experiment [7] (Exp. 3); 100% in experiment [8] (72 h, Exp. 1); 101% in experiment [8] (72 h, Exp. 2); 59% in experiment [9] (Exp. 1). Also, the activity at 125 µg/mL in experiment [9] (Exp. 2) and in experiment [9] (Exp. 3) was 60% in each case. Moreover, the activity at 250 µg/mL is 63% in experiment [7] (Exp. 1); 59% in experiment [7] (Exp. 2); 52% in [7] (Exp. 3); 101% in [8] (72 h, 250 μg/ml, Exp. 2); 20% in [9] (Exp. 1); 28% in experiment [9] (Exp. 2). Also, the activity at 250 µg/mL in experiment [9] (Exp. 3) amounted to 45%. Moreover, the activity at 500 µg/mL in experiment [7] (Exp. 1) came to 40%; in experiment [7] (Exp. 2), 44%; in experiment [7] (Exp. 3), 32%; in [8] (72 h, Exp. 1), 100%; in experiment [8] (72 h, Exp. 2), 96%; in experiment [9] (Exp. 1), 2%. Moreover, the activity at 500 µg/mL in experiment [9] (Exp. 2) was 3%; in experiment [9] (Exp. 3) it was 22%. For the same compound, the activity at 1000 µg/mL in [7] (Exp. 1) worked out at 9%; in experiment [7] (Exp. 2), 20%; in experiment [7] (Exp. 3), 5%; in experiment [8] (72 h, Exp. 1) it was 72%; in [8] (72 h, Exp. 2), 76%; in experiment [9] (1000 μg/ml, Exp. 1, read-out: % growth), 1%. In addition, the activity at 1000 µg/mL in experiment [9] (1000 μg/ml, Exp. 2, read-out: % growth) amounted to 1%; in experiment [9] (read-out: % growth, 1000 μg/ml, Exp. 3), 6.8%. Besides, the IC50 in experiment [7] (setting [11]) was 350 µg/mL; in [8] (growth, 72 hours, estimated from dose response plots), greater than 1000 µg/mL; in experiment [9] (setting [11]), 170 µg/mL.

As for `NC[C@@H]1O[C@H](O[C@H]2[C@@H](O)[C@H](O[C@@H]3[C@@H](O)[C@H](N)C[C@H](N)[C@H]3O[C@H]3O[C@H](CO)[C@@H](O)[C@H](O)[C@H]3N)O[C@@H]2CO)[C@H](N)[C@@H](O)[C@@H]1O` [paromomycin], the “relapse after cessation of treatment” value in [10] was “common”.
